# Reference: patent publication US6436963B1 (priority 1998, dated 2002)
# What was measured:
# Assay type in all cases: in vivo
# [1] = tested on: Leptosphaeria nodorum; test: Glume Blotch of Wheat (LEPTNO), protectant spray test on wheat seedlings; conditions: wheat (cultivar Monon), sprayed to run off at 100 ppm, inoculated after 24 hours
# [2] = tested on: Erysiphe graminis; test: Powdery Mildew of Wheat (ERYSGT), protectant spray test on wheat seedlings; conditions: wheat (cultivar Monon), sprayed to run off at 100 ppm, inoculated after 24 hours
# [3] = tested on: Phytophthora infestans; conditions: tomatoes (cultivar Rutgers), sprayed to run off at 100 ppm, inoculated after 24 hours
# [4] = tested on: Puccinia recondita; test: Brown Rust (PUCCRT), protectant spray test on wheat seedlings; conditions: wheat (cultivar Monon), sprayed to run off at 100 ppm, inoculated after 24 hours
SMILES,LEPTNO control of plant disease [1],ERYSGT control of plant disease [2],PHYTIN control of plant disease [3],PUCCRT control of plant disease [4]
CNC(=O)C(=NOC)c1ccccc1COc1ncc(C(O)c2ccccc2F)cc1Cl (racemic) [Example 65],++ (++ = 75-100% control of plant disease),++ (++ = 75-100% control of plant disease),++ (++ = 75-100% control of plant disease),++ (++ = 75-100% control of plant disease)
CNC(=O)C(=NOC)c1ccccc1COc1ncc(C(C)O)cc1Cl (racemic) [Example 40],++ (++ = 75-100% control of plant disease),+ (+ = 25-74% control of plant disease),+ (+ = 25-74% control of plant disease),++ (++ = 75-100% control of plant disease)
CNC(=O)C(=NOC)c1ccccc1COc1ncc(C(OC(=O)C(F)(F)F)c2ccccc2)cc1Cl (racemic) [Example 37],++ (++ = 75-100% control of plant disease),+ (+ = 25-74% control of plant disease),++ (++ = 75-100% control of plant disease),++ (++ = 75-100% control of plant disease)
CNC(=O)C(=NOC)c1ccccc1COc1ncc(C(OCc2ccc(OC)cc2)c2ccccc2)cc1Cl (stereo not shown) [Example 101],+ (+ = 25-74% control of plant disease),++ (++ = 75-100% control of plant disease),++ (++ = 75-100% control of plant disease),++ (++ = 75-100% control of plant disease)
CNC(=O)C(=NOC)c1ccccc1COc1ncc(C(O)c2ccccc2)cc1Cl (stereo not shown) [Example 72],++ (++ = 75-100% control of plant disease),++ (++ = 75-100% control of plant disease),++ (++ = 75-100% control of plant disease),++ (++ = 75-100% control of plant disease)
CNC(=O)C(=NOC)c1ccccc1COc1ncc(C(O)c2ccc(F)cc2)cc1Cl (racemic) [Example 7],++ (++ = 75-100% control of plant disease),++ (++ = 75-100% control of plant disease),++ (++ = 75-100% control of plant disease),++ (++ = 75-100% control of plant disease)
CNC(=O)C(=NOC)c1ccccc1COc1ncc(C(OC)c2ccccc2F)cc1Cl (stereo not shown) [Example 99],++ (++ = 75-100% control of plant disease),++ (++ = 75-100% control of plant disease),− (− = 0-24% control of plant disease),++ (++ = 75-100% control of plant disease)
CNC(=O)C(=NOC)c1ccccc1COc1ncc(C(OC2CCCCO2)c2ccccc2)cc1Cl (mixture of isomers) [Example 57],++ (++ = 75-100% control of plant disease),++ (++ = 75-100% control of plant disease),++ (++ = 75-100% control of plant disease),++ (++ = 75-100% control of plant disease)
CNC(=O)C(=NOC)c1ccccc1COc1ncc(C(OC(=O)c2ccccc2)c2ccccc2)cc1Cl (racemic) [Example 29],++ (++ = 75-100% control of plant disease),+ (+ = 25-74% control of plant disease),+ (+ = 25-74% control of plant disease),++ (++ = 75-100% control of plant disease)
CNC(=O)C(=NOC)c1ccccc1COc1ncc(COCc2ccc(OC)cc2)cc1Cl [Example 25],++ (++ = 75-100% control of plant disease),++ (++ = 75-100% control of plant disease),+ (+ = 25-74% control of plant disease),++ (++ = 75-100% control of plant disease)
CNC(=O)C(=NOC)c1ccccc1COc1ncc(C2(c3ccccc3)COC(=S)O2)cc1Cl (stereo not shown) [Example 125],++ (++ = 75-100% control of plant disease),++ (++ = 75-100% control of plant disease),++ (++ = 75-100% control of plant disease),++ (++ = 75-100% control of plant disease)
CCCC(=O)OC(c1ccccc1)c1cnc(OCc2ccccc2C(=NOC)C(=O)NC)c(Cl)c1 (racemic) [Example 47],++ (++ = 75-100% control of plant disease),++ (++ = 75-100% control of plant disease),++ (++ = 75-100% control of plant disease),++ (++ = 75-100% control of plant disease)
CNC(=O)C(=NOC)c1ccccc1COc1ncc(C(OC=O)c2ccccc2)cc1Cl (racemic) [Example 54],++ (++ = 75-100% control of plant disease),++ (++ = 75-100% control of plant disease),++ (++ = 75-100% control of plant disease),++ (++ = 75-100% control of plant disease)
CNC(=O)C(=NOC)c1ccccc1COc1ncc(C(O)c2cccc(Cl)c2)cc1Cl (stereo not shown) [Example 73],++ (++ = 75-100% control of plant disease),++ (++ = 75-100% control of plant disease),++ (++ = 75-100% control of plant disease),++ (++ = 75-100% control of plant disease)
CNC(=O)C(=NOC)c1ccccc1COc1ncc(C(O)c2cccc(F)c2)cc1Cl (stereo not shown) [Example 93],++ (++ = 75-100% control of plant disease),++ (++ = 75-100% control of plant disease),++ (++ = 75-100% control of plant disease),++ (++ = 75-100% control of plant disease)
CNC(=O)C(=NOC)c1ccccc1COc1ncc(C(O)c2cccc(C)c2)cc1Cl (stereo not shown) [Example 85],++ (++ = 75-100% control of plant disease),++ (++ = 75-100% control of plant disease),− (− = 0-24% control of plant disease),++ (++ = 75-100% control of plant disease)
CNC(=O)C(=NOC)c1ccccc1COc1ncc(C(OC(C)=O)c2ccc(OC)c(OC)c2)cc1Cl (stereo not shown) [Example 116],++ (++ = 75-100% control of plant disease),++ (++ = 75-100% control of plant disease),+ (+ = 25-74% control of plant disease),++ (++ = 75-100% control of plant disease)
CNC(=O)C(=NOC)c1ccccc1COc1ncc(C(C)(O)c2ccccc2)cc1Cl (racemic) [Example 26],++ (++ = 75-100% control of plant disease),++ (++ = 75-100% control of plant disease),++ (++ = 75-100% control of plant disease),++ (++ = 75-100% control of plant disease)
CNC(=O)C(=NOC)c1ccccc1COc1ncc(C(C)(C)O)cc1Cl [Example 34],+ (+ = 25-74% control of plant disease),− (− = 0-24% control of plant disease),+ (+ = 25-74% control of plant disease),++ (++ = 75-100% control of plant disease)
CNC(=O)C(=NOC)c1ccccc1COc1ncc(C(OC(C)=O)c2ccc3c(c2)OCO3)cc1Cl (racemic) [Example 60],++ (++ = 75-100% control of plant disease),++ (++ = 75-100% control of plant disease),++ (++ = 75-100% control of plant disease),++ (++ = 75-100% control of plant disease)
CNC(=O)C(=NOC)c1ccccc1COc1ncc(C(O)c2ccsc2)cc1Cl (stereo not shown) [Example 109],++ (++ = 75-100% control of plant disease),++ (++ = 75-100% control of plant disease),++ (++ = 75-100% control of plant disease),++ (++ = 75-100% control of plant disease)
CCC(=O)OC(c1ccc(F)cc1)c1cnc(OCc2ccccc2C(=NOC)C(=O)NC)c(Cl)c1 (racemic) [Example 48],++ (++ = 75-100% control of plant disease),++ (++ = 75-100% control of plant disease),++ (++ = 75-100% control of plant disease),++ (++ = 75-100% control of plant disease)
CNC(=O)C(=NOC)c1ccccc1COc1ncc(C(OC(=O)C(C)(C)C)c2ccccc2)cc1Cl (racemic) [Example 30],++ (++ = 75-100% control of plant disease),+ (+ = 25-74% control of plant disease),++ (++ = 75-100% control of plant disease),++ (++ = 75-100% control of plant disease)
CNC(=O)C(=NOC)c1ccccc1COc1ncc(C(C)(OC(C)=O)c2ccccc2)cc1Cl (racemic) [Example 53],++ (++ = 75-100% control of plant disease),++ (++ = 75-100% control of plant disease),++ (++ = 75-100% control of plant disease),++ (++ = 75-100% control of plant disease)
CNC(=O)C(=NOC)c1ccccc1COc1ncc(C(O)C(C)C)cc1Cl (racemic) [Example 43],+ (+ = 25-74% control of plant disease),++ (++ = 75-100% control of plant disease),++ (++ = 75-100% control of plant disease),++ (++ = 75-100% control of plant disease)
